The record followed here is ChEMBL document CHEMBL3045283, “Synthesis and biological activity of heterocycles from chalcone” (2008).

Calls of active or inactive are those of the source. No cut-off for these calls is given here.

Test [1] has as its system Staphylococcus aureus. The experiment in a line: Antibacterial activity against Staphylococcus aureus at 1000 ug/disc. In kind it is functional.
The test system of test [2] is Escherichia coli. The experiment in a line: Antibacterial activity against Escherichia coli at 1000 ug/disk. The format is functional.
Test [3] deals with Bacillus subtilis. The experiment in a line: Antibacterial activity against Bacillus subtilis at 1000 ug/disk. The format is functional. The following applies: read-out: IZ.
For test [4], the system named is Salmonella typhimurium. Briefly: Antibacterial activity against Salmonella enterica subsp. enterica serovar Typhimurium at 1000 ug/disc. In kind it is functional, organism-based.

`O=c1oc2ccccc2c(O)c1C1=NNC(c2cn[nH]c2-c2ccccc2O)C1` (configuration not stated): the zone of inhibition at 1000 µg/disc is 20 mm in test [1] (read-out: IZ), 12 mm in test [2] (read-out: IZ) and 25 mm in test [3]. The “inhibition zone (IZ)” value in test [4] is “inactive”.

As to `O=c1oc2ccccc2c(O)c1C1=NN(c2ccccc2)C(c2cnn(-c3ccccc3)c2-c2ccccc2O)C1` (configuration not stated), the “inhibition zone (IZ)” value in test [1], in test [2] and in test [4] was “inactive” in each case. In addition, the zone of inhibition at 1000 µg/disc in test [3] came out at 10 mm.

Regarding `O=C(/C=C/c1coc2ccccc2c1=O)c1c(O)c2ccccc2oc1=O`, the “inhibition zone (IZ)” value in test [1], in test [2] and in test [4] was “inactive” each time. In test [3], the zone of inhibition at 1000 µg/disc is 12 mm.
